Source: PMC4216168, “Ligand Binding and Activation of PPARγ by Firemaster® 550: Effects on Adipogenesis and Osteogenesis in Vitro” (Environmental Health Perspectives, 2014)
pEC50, pIC50, pKd: −log10 of the molar value. Where two headings read alike, the source gives them in different places.

What was measured:
[1] = biological target: T1, human recombinant PPARγ ligand binding domain (LBD) (Homo sapiens, UniProt P37231); experiment: biochemical; details: for binding to PPARγ LBD: over the concentration range tested (TBB 0.009–90 μM, TBPH 0.12–1,200 μM)
T1 construct: purchased Invitrogen
T1 sequence (P37231 238-503 limits assumed): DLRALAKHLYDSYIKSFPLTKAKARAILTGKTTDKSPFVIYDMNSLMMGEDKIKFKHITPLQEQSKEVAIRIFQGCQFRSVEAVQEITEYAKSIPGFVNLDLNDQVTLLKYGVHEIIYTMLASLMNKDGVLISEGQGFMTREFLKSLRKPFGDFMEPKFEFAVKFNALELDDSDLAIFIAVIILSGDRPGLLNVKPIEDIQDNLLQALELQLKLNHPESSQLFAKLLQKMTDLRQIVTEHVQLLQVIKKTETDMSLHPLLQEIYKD
Method: PPARγ ligand binding assay. Human PPARγ binding was quantified using the PolarScreen^TM PPARγ-Competitor Assay Kit (Invitrogen, Carlsbad, CA), according to the manufacturer’s instructions. […] Displacement of the fluorescent ligand, which has high polarization when bound to the PPARγ-LBD and low polarization when not bound, was assessed by measuring loss of fluorescence polarization using a SpectraMax M5 plate reader (Molecular Devices, Sunnyvale, CA). We calculated the IC50 (concentration required to reduce effect by 50%) and dissociation constants to compare the potency of the binding. Dissociation constants were calculated according to the following equation:
IC50/[PPARγ green] = Kd,ligand/Kd,probe,
where Kd,probe is the dissociation constant calculated from titration of 1.25 nM Fluormone™ PPARγ green with the PPARγ LBD.

[2] = design: method as in Patisaul et al. 2013; Roberts et al. 2012; details: in vivo and in vitro; ref Patisaul et al. 2013; Roberts et al. 2012; cited from earlier work
[3] = tested on: estrogen receptor; design: method as in earlier work; details: ref Honkakoski et al. 2004; Kojima et al. 2013; Suzuki et al. 2013; cited from earlier work
[4] = tested on: constitutive androstane receptor; design: method as in earlier work; details: ref Honkakoski et al. 2004; Kojima et al. 2013; Suzuki et al. 2013; cited from earlier work
[5] = tested on: BMS2 cells; details: 12 days; as high as 10 μg/mL (20 μM) FM550 or 20 μM TPP
Method: (§1) Cell viability assays. […] Apoptosis and necrosis were assessed by caspase-3 activity (Caspase-Glo® 3/7 Assay; Promega) and dead cell protease release (CytoTox-Glo™ Cytotoxicity Assay; Promega), respectively, according to the manufacturer’s instructions.

[6] = tested on: primary mouse bone marrow cultures; experiment: Alkaline phosphatase activity in primary bone marrow cultures; details: 12 days; FM550 at 5 μg/mL (10 μM)
[7] = tested on: progesterone receptor; design: method as in earlier work; details: ref Honkakoski et al. 2004; Kojima et al. 2013; Suzuki et al. 2013; cited from earlier work
[8] = tested on: BMS2 cells
[9] = tested on: pregnane X receptor; design: method as in earlier work; details: ref Honkakoski et al. 2004; Kojima et al. 2013; Suzuki et al. 2013; cited from earlier work
[10] = tested on: perilipin expression in BMS2 cells; experiment: Perilipin protein expression (immunoblot) in BMS2 cells; details: BMS2, 7 days
[11] = tested on: glucocorticoid receptor; design: method as in earlier work; details: ref Honkakoski et al. 2004; Kojima et al. 2013; Suzuki et al. 2013; cited from earlier work
[12] = tested on: primary mouse bone marrow cultures; experiment: Lipid accumulation (Nile red) in primary bone marrow cultures under osteogenic induction; details: 12 days, molar value of FM550 estimated
[13] = tested on: primary mouse bone marrow cultures; experiment: Mineralization (Alizarin red) in primary bone marrow cultures; details: 12 days; FM550 at 5 μg/mL (10 μM)
[14] = tested on: Fabp4 mRNA in primary mouse bone marrow cultures; experiment: Fabp4 mRNA expression (qPCR) in primary bone marrow cultures; assay type: cell-based; details: 7 days
Method: (§2) mRNA expression. Total RNA was extracted, and genomic DNA was removed using the RNeasy Plus Mini Kit (QIAGEN, Valencia, CA). cDNA was prepared from total RNA using the GoScript™ Reverse Transcription System (Promega). All quantitative reverse-transcription polymerase chain reaction (qPCR) was performed using the GoTaq® qPCR Master Mix System (Promega). The following validated primers were purchased from Qiagen: 18s ribosomal RNA (Rn18s; QT01036875), fatty acid binding protein 4 (Fabp4; QT00091532), Sp7 transcription factor 7 [Osterix (Sp7; QT00293181)]. qPCR was performed using a 7500 Fast Real-Time PCR System (Applied Biosystems, Carlsbad, CA). Relative gene expression was determined according to the Pfaffl method ([Pfaffl 2001]), with the threshold value for Rn18s used for normalization. […] The quantification cycle value from naive, undifferentiated cultures prepared from 9-week-old male mice was used as the reference point. Data are reported as fold difference from naive.

[15] = tested on: Sp7 mRNA in primary mouse bone marrow cultures; experiment: Sp7 (Osterix) mRNA expression (qPCR) in primary bone marrow cultures; assay type: cell-based; details: 7 days
Method: as §2

[16] = tested on: BMS2 cells; experiment: Lipid accumulation (Nile red) in BMS2 cells
[17] = biological target: human PPARγ1 (Homo sapiens, UniProt P37231); experiment: PPRE-luciferase reporter assay in Cos-7 cells transfected with human PPARG1 and RXRA; assay type: cell-based
From the text: Reporter assays. Cos-7 cells were transiently transfected with vectors containing human PPARG1 (provided by V.K. Chatterjee, University of Cambridge, Cambridge, UK) ([Gurnell et al. 2000]) and human RXRA (plasmid 8882; Addgene, Cambridge, MA) ([Tontonoz et al. 1994]), with PPRE x3-TK-luc (plasmid 1015; Addgene) ([Kim et al. 1998]) and CMV-eGFP reporter constructs using Lipofectamine2000 (Invitrogen). Cultures were cotransfected with either pcDNA3 (Invitrogen) or dominant negative human PPARG (PPARγ-DN; provided by V.K. Chatterjee). […] After 24 hr incubation, cells were lysed in Glo Lysis Buffer and mixed with Bright Glo reagent (both from Promega, Madison, WI). […] Luminescence was normalized by GFP (green fluorescent protein) fluorescence in the same well. The normalized luminescence for each well was then divided by the normalized luminescence measured in control DN-PPARγ–transfected wells to determine the fold-change from DN-control.

[18] = tested on: BMS2 cells; experiment: Necrosis by dead cell protease release (CytoTox-Glo) in BMS2 cultures; details: 12 days; as high as 10 μg/mL (20 μM) FM550 or 20 μM TPP
Method: as §1

[19] = tested on: PPARγ; design: method as in Springer et al. 2012; details: in vitro; ref Springer et al. 2012; cited from earlier work
[20] = tested on: NIH 3T3L1 cells; design: method as in Springer et al. 2012; details: ref Springer et al. 2012; cited from earlier work
[21] = tested on: PPARα; design: method as in Springer et al. 2012; details: in vitro; ref Springer et al. 2012; cited from earlier work

Sequence of human PPARγ1 (P19793 whole entry): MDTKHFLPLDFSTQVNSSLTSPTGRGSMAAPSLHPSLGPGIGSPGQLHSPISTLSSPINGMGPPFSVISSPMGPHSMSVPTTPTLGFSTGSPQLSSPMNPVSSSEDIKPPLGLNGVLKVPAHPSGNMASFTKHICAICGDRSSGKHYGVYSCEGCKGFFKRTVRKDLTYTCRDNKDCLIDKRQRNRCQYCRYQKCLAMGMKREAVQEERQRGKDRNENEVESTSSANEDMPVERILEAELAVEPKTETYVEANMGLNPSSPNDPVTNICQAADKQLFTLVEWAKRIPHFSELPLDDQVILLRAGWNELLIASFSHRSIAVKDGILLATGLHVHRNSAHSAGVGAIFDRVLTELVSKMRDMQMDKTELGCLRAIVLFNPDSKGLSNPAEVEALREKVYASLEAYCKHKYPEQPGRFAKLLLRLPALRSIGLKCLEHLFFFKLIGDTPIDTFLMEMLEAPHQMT
Sequence of human PPARγ1 (P37231 29-505): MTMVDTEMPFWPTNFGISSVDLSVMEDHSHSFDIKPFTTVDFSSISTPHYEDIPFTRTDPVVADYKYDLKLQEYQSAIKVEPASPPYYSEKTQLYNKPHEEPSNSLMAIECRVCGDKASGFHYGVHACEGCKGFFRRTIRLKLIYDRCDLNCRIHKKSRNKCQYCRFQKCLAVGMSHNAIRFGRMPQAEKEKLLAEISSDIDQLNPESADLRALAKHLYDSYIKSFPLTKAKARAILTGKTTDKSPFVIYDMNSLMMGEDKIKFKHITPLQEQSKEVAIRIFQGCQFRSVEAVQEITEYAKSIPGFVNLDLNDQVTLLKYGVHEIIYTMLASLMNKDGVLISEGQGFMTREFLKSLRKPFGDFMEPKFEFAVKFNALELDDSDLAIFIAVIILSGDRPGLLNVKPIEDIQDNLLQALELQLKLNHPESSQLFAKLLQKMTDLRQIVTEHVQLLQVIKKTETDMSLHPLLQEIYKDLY

**Q.** With `CCCCC(CC)COC(=O)c1cc(Br)c(Br)c(Br)c1Br` (centres unmarked) [TBB, tetrabromobenzoate] as the compound, how does the “binding to PPARγ LBD” value [1] read?
**A.** Its value is “did not demonstrate any binding”.

**Q.** For `CCCCC(CC)COC(=O)c1c(Br)c(Br)c(Br)c(Br)c1C(=O)OCC(CC)CCCC` (centres unmarked) [TBPH, bis-(2-ethylhexyl) tetrabromophthalate], which “binding to PPARγ LBD” value [1] is on record?
**A.** Its value is “did not demonstrate any binding”.

**Q.** And the “metabolism into the monoester” value [2]?
**A.** The value was “minimally metabolized into the monoester”.

**Q.** For `O=P(Oc1ccccc1)(Oc1ccccc1)Oc1ccccc1` [TPP, triphenyl phosphate], which “estrogen receptor–mediated reporter activity” value [3] is on record?
**A.** Its value is “activating”.

**Q.** And the pIC50 [1]?
**A.** Its pIC50 is 4.42.

**Q.** What about the pKd [1] of the same compound?
**A.** Its pKd is 4.70.

**Q.** And the “constitutive androstane receptor–mediated reporter activity” value [4]?
**A.** The value was “activating”.

**Q.** And the caspase-3 activity [5]?
**A.** Its caspase-3 activity is “no increase in caspase-3 activity”.

**Q.** What about the alkaline phosphatase activity [6] of the same compound?
**A.** Its alkaline phosphatase activity is “significantly suppressed”.

**Q.** What about the “progesterone receptor–mediated reporter activity” value [7] of the same compound?
**A.** Its value is “antagonizing”.

**Q.** What about the “cellularity (MTT)” value ([8]; 24 hr, as high as 40 μg/mL (90 μM) FM550, 40 μM TPP, 40 μg/mL (100 μM) ITP) of the same compound?
**A.** The value was “no loss of cellularity”.

**Q.** And the “cellularity (MTT)” value ([8]; 7 days, as high as 20 μg/mL (50 μM) FM550, 20 μM TPP, 10 μg/mL (30 μM) ITP)?
**A.** Its value is “no loss of cellularity”.

**Q.** What about the “cellularity (MTT)” value ([8]; 12 days, as high as 10 μg/mL (20 μM) FM550 or 20 μM TPP) of the same compound?
**A.** The value was “no loss of cellularity”.

**Q.** What about the “pregnane X receptor–mediated reporter activity” value [9] of the same compound?
**A.** The value was “activating”.

**Q.** And the perilipin expression [10]?
**A.** Its perilipin expression is “induced the expression of perilipin”.

**Q.** What about the “glucocorticoid receptor–mediated reporter activity” value [11] of the same compound?
**A.** Its value is “antagonizing”.

**Q.** And the “concentration inducing lipid accumulation” value [12]?
**A.** Its value is 10 µM.

**Q.** What about the mineralization [13] of the same compound?
**A.** The mineralization was “significantly suppressed only alkaline phosphatase activity”.

**Q.** And the “Fabp4 mRNA expression” value [14]?
**A.** Its value is “significantly increased mRNA expression of Fabp4”.

**Q.** And the “Sp7 mRNA expression” value [15]?
**A.** Its value is “significant decrease in mRNA expression of Sp7”.

**Q.** And the maximal lipid accumulation ([16]; 7 days, naive-corrected, rosiglitazone at 1 μM)?
**A.** Its maximal lipid accumulation is 614 ± 60 RFUs.

**Q.** And the “concentrations significantly inducing lipid accumulation” value ([16]; BMS2, 7 days, molar values of FM550 and ITP estimated)?
**A.** Its value is no less than 5 µM.

**Q.** What about the pEC50 [17] of the same compound?
**A.** The pEC50 was 5.10.

**Q.** What about the “concentrations significantly inducing PPARγ-driven reporter activity” value ([17]; Cos7, 24 hr, molar values of FM550 and ITP estimated) of the same compound?
**A.** The value was no less than 10 µM.

**Q.** What about the “maximal PPARγ-driven reporter activity” value ([17]; fold-change from DN-control, 24 hr, rosiglitazone at 1 μM) of the same compound?
**A.** Its value is 7.5 ± 0.7 fold.

**Q.** What about the necrotic protein release [18] of the same compound?
**A.** Its necrotic protein release is “no increase in necrotic protein release”.

**Q.** With `CCCCC(CC)COC(=O)c1c(Br)c(Br)c(Br)c(Br)c1C(=O)O` (centres unmarked) [mono-(2-ethylhexyl) tetrabromophthalate] as the compound, how does the PPARγ-mediated gene transcription [19] read?
**A.** The PPARγ-mediated gene transcription was “activated”.

**Q.** And the adipocyte differentiation [20]?
**A.** The adipocyte differentiation was “induced adipocyte differentiation”.

**Q.** And the PPARα-mediated gene transcription [21]?
**A.** Its PPARα-mediated gene transcription is “activated”.
